Experimental data reported in article PMC5578959, “Selective LRRK2 kinase inhibition reduces phosphorylation of endogenous Rab10 and Rab12 in human peripheral mononuclear blood cells” (Scientific Reports, 2017).
Where two headings read alike, the source gives them in different places.

How the values were obtained:
Rab10-pThr73 = experiment: Western Blot, HEK293 cells co-expressing HA-Rab10 and LRRK2 variants; type: cell-based, human; conditions: 100 nM; HEK293 co-overexpressing HA-Rab10 and LRRK2 WT, G2019S or R1441C
Procedure: (§1) Plasmids encoding various LRRK2 and Rab GTPase protein variants were transiently expressed in HEK293 cells using Lipofectamine®2000 according to the manufacturer’s instructions (Thermo Fisher Scientific, US).
(§2) HEK293 cells were plated at a density of 1 × 10^6 cells/well in 6-well plates pre-coated for 1 hr at 37 °C with poly-L-lysin. Subsequent to the transient transfection HEK293 cells were harvested using 1 mL cold Phosphate Buffered Saline (PBS) buffer (Invitrogen, California, US) and subsequently centrifuged at 800 g for 2 minutes. Cell pellets were resuspended and solubilized in 100 µL lysis buffer (50 mM Tris hydrochloride, 1 mM magnesium chloride, 1% Triton, 0.1% sodium dodecyl sulfate (SDS), pH 8.0) on ice for 20 minutes and then centrifuged at 20,000 g for 30 minutes at 4 °C. The solubilized crude cell lysate was size mobility separated by SDS-polyacrylamide gel electrophoresis (SDS-PAGE). LRRK2 was separated on a 3–8% Tris-Acetate gel (NuPAGE® Tris-Acetate Mini Gels, Life Technologies, Paisley, UK) and Rab10 and Rab12 were separated using a NuPAGE® Novex 4–12% Bis-Tris Gel (Invitrogen, California, US). An amount of 10 µg total protein was loaded in each well. Proteins were transferred to immobilon-FL PVDF membranes (Millipore, Billerica, US).

Rab12-pSer106 = experiment: Western Blot, HEK293 cells co-expressing HA-Rab12 and LRRK2 variants; type: cell-based, human; conditions: 100 nM; HEK293 co-overexpressing HA-Rab12 and LRRK2 WT, G2019S or R1441C
Procedure: as §1, §2

p38b = tested on: T1, p38b; experiment: KiNativ profiling in human PBMCs; type: binding; conditions: Protein Kinase Domain
T1 construct: purchased ActivX Technologies (KiNativ)

EphA1 = tested on: T2, EphA1; experiment: KiNativ profiling in human PBMCs; type: binding; conditions: Activation Loop
T2 construct: purchased ActivX Technologies (KiNativ)

PEK = tested on: T3, PEK; experiment: KiNativ profiling in human PBMCs; type: binding; conditions: Lys2
T3 construct: purchased ActivX Technologies (KiNativ)

PIP4K2B = tested on: T4, PIP4K2B; experiment: KiNativ profiling in human PBMCs; type: binding; conditions: ATP
T4 construct: purchased ActivX Technologies (KiNativ)

PCTAIRE2, PCTAIRE3 = experiment: KiNativ profiling in human PBMCs; type: binding; conditions: Lys1
FYN = tested on: T5, FYN; experiment: KiNativ profiling in human PBMCs; type: binding; conditions: Lys1
T5 construct: purchased ActivX Technologies (KiNativ)

CK1a = tested on: T6, CK1a; experiment: KiNativ profiling in human PBMCs; type: binding; conditions: Lys2
T6 construct: purchased ActivX Technologies (KiNativ)

MAP2K1 = tested on: T7, MAP2K1; experiment: KiNativ profiling in human PBMCs; type: binding; conditions: Lys2
T7 construct: purchased ActivX Technologies (KiNativ)

GAK = tested on: T8, GAK; experiment: KiNativ profiling in human PBMCs; type: binding; conditions: Lys2
T8 construct: purchased ActivX Technologies (KiNativ)

PKCh = tested on: T9, PKCh; experiment: KiNativ profiling in human PBMCs; type: binding; conditions: Lys1
T9 construct: purchased ActivX Technologies (KiNativ)

CLK3 = tested on: T10, CLK3; experiment: KiNativ profiling in human PBMCs; type: binding; conditions: ATP Loop
T10 construct: purchased ActivX Technologies (KiNativ)

CDK9 = tested on: T11, CDK9; experiment: KiNativ profiling in human PBMCs; type: binding; conditions: Lys2
T11 construct: purchased ActivX Technologies (KiNativ)

SRC = tested on: T12, SRC; experiment: KiNativ profiling in human PBMCs; type: binding; conditions: Lys1
T12 construct: purchased ActivX Technologies (KiNativ)

MARK3, MARK4 = experiment: KiNativ profiling in human PBMCs; type: binding; conditions: Lys1
VRK2 = tested on: T13, VRK2; experiment: KiNativ profiling in human PBMCs; type: binding; conditions: Lys2
T13 construct: purchased ActivX Technologies (KiNativ)

CASK = tested on: T14, CASK; experiment: KiNativ profiling in human PBMCs; type: binding; conditions: Lys1
T14 construct: purchased ActivX Technologies (KiNativ)

PDHK1 = tested on: T15, PDHK1; experiment: KiNativ profiling in human PBMCs; type: binding; conditions: ATP
T15 construct: purchased ActivX Technologies (KiNativ)

BLK = tested on: T16, BLK; experiment: KiNativ profiling in human PBMCs; type: binding; conditions: Activation Loop
T16 construct: purchased ActivX Technologies (KiNativ)

CHED = conditions: Lys2
MAST4 = tested on: T17, MAST4; experiment: KiNativ profiling in human PBMCs; type: binding; conditions: Lys2
T17 construct: purchased ActivX Technologies (KiNativ)

MAP3K3 = tested on: T18, MAP3K3; experiment: KiNativ profiling in human PBMCs; type: binding; conditions: Lys1
T18 construct: purchased ActivX Technologies (KiNativ)

PKCd = tested on: T19, PKCd; experiment: KiNativ profiling in human PBMCs; type: binding; conditions: Lys2
T19 construct: purchased ActivX Technologies (KiNativ)

ATR = tested on: T20, ATR; experiment: KiNativ profiling in human PBMCs; type: binding; conditions: ATP
T20 construct: purchased ActivX Technologies (KiNativ)

PKN2 = tested on: T21, PKN2; experiment: KiNativ profiling in human PBMCs; type: binding; conditions: Lys2
T21 construct: purchased ActivX Technologies (KiNativ)

Which “phosphorylation of Rab10 (pThr73)” value (Rab10-pThr73) does the source give for Cc1cccc(-c2cc(Nc3ccn(C)n3)nc3[nH]cc(C#N)c23)c1 [Lu AF58786] here?
The value was “no phosphorylation”.

And the “phosphorylation of Rab12 (pSer106)” value (Rab12-pSer106)?
The value was “statistically significant reduction”.

With Cn1cc(-c2c[nH]c3ncnc(N4CCOCC4)c23)cc1C#N [PFE-360] as the molecule, how does the “% Inhibition” value (p38b; 0.1µM) read?
Its value is 3.5%.

What about the “% Inhibition” value (p38b; 1µM) of the same molecule?
The value was 7%.

What about the “% Inhibition” value (EphA1; 0.1µM) of the same molecule?
Its value is -12.8%.

What about the “% Inhibition” value (EphA1; 1µM) of the same molecule?
The value was -26.9%.

What about the “% Inhibition” value (PEK; 0.1µM) of the same molecule?
The value was 10.6%.

And the “% Inhibition” value (PEK; 1µM)?
The value was 17.3%.

And the “% Inhibition” value (PIP4K2B; 0.1µM)?
Its value is 6.9%.

And the “% Inhibition” value (PIP4K2B; 1µM)?
The value was 22.6%.

What about the “% Inhibition” value (PCTAIRE2, PCTAIRE3; 0.1µM) of the same molecule?
The value was -34%.

And the “% Inhibition” value (PCTAIRE2, PCTAIRE3; 1µM)?
The value was 11.6%.

And the “% Inhibition” value (FYN; 0.1µM)?
Its value is -23.9%.

What about the “% Inhibition” value (FYN; 1µM) of the same molecule?
Its value is -19%.

And the “% Inhibition” value (CK1a; 0.1µM)?
Its value is -17.4%.

What about the “% Inhibition” value (CK1a; 1µM) of the same molecule?
The value was 4.6%.

What about the “% Inhibition” value (MAP2K1; 0.1µM) of the same molecule?
Its value is -25.9%.

What about the “% Inhibition” value (MAP2K1; 1µM) of the same molecule?
Its value is 6.5%.

What about the “% Inhibition” value (GAK; 0.1µM) of the same molecule?
The value was -12.4%.

What about the “% Inhibition” value (GAK; 1µM) of the same molecule?
The value was -36.6%.

And the “% Inhibition” value (PKCh; 0.1µM)?
Its value is -10.3%.

And the “% Inhibition” value (PKCh; 1µM)?
Its value is -11%.

And the “% Inhibition” value (CLK3; 0.1µM)?
The value was 3.8%.

What about the “% Inhibition” value (CLK3; 1µM) of the same molecule?
Its value is -6.8%.

What about the “% Inhibition” value (CDK9; 0.1µM) of the same molecule?
Its value is -8.9%.

And the “% Inhibition” value (CDK9; 1µM)?
Its value is -4.4%.

What about the “% Inhibition” value (SRC; 0.1µM) of the same molecule?
The value was -31.8%.

What about the “% Inhibition” value (SRC; 1µM) of the same molecule?
The value was -0.3%.

What about the “% Inhibition” value (MARK3, MARK4; 0.1µM) of the same molecule?
The value was 0.7%.

And the “% Inhibition” value (MARK3, MARK4; 1µM)?
Its value is 3.6%.

And the “% Inhibition” value (VRK2; 0.1µM)?
The value was -2.9%.

And the “% Inhibition” value (VRK2; 1µM)?
Its value is 8.4%.

And the “% Inhibition” value (CASK; 0.1µM)?
The value was 4.6%.

And the “% Inhibition” value (CASK; 1µM)?
Its value is 8.6%.

And the “% Inhibition” value (PDHK1; 0.1µM)?
Its value is -3.7%.

What about the “% Inhibition” value (PDHK1; 1µM) of the same molecule?
The value was -3%.

What about the “% Inhibition” value (BLK; 0.1µM) of the same molecule?
Its value is 12.4%.

And the “% Inhibition” value (BLK; 1µM)?
Its value is -11.6%.

What about the “% Inhibition” value (CHED; 0.1µM) of the same molecule?
Its value is 4.9%.

What about the “% Inhibition” value (CHED; 1µM) of the same molecule?
The value was -1.5%.

And the “% Inhibition” value (MAST4; 0.1µM)?
Its value is -5.7%.

What about the “% Inhibition” value (MAST4; 1µM) of the same molecule?
The value was -21.4%.

And the “% Inhibition” value (MAP3K3; 0.1µM)?
Its value is 18.3%.

What about the “% Inhibition” value (MAP3K3; 1µM) of the same molecule?
The value was 16.1%.

What about the “% Inhibition” value (PKCd; 0.1µM) of the same molecule?
Its value is 3.5%.

What about the “% Inhibition” value (PKCd; 1µM) of the same molecule?
Its value is -0.6%.

What about the “% Inhibition” value (ATR; 0.1µM) of the same molecule?
Its value is -25.8%.

What about the “% Inhibition” value (ATR; 1µM) of the same molecule?
Its value is 10.7%.

And the “% Inhibition” value (PKN2; 0.1µM)?
Its value is -3%.

And the “% Inhibition” value (PKN2; 1µM)?
The value was -20%.
